Experimental data from paper PMC11579512, “Deoxybouvardin-glucoside induces apoptosis in non-small cell lung cancer cells by targeting EGFR/MET and AKT signaling pathway” (EXCLI Journal, 2024).

Columns and labels:
Type in all cases: cell-based, human
HCC827GR cells = test: Soft agar anchorage-independent growth, HCC827GR; settings: 2 weeks
Method: The anchorage-independent cell growth assay was performed in 6-well plates with dual agar layers containing 0.6 % agar (lower layer) and 0.3 % agar (upper layer) supplemented with BME, 2 mM L-glutamine, 5 μg/ml gentamicin, and 10 % FBS. After 2 weeks of incubation, the number of colonies was assessed using a microscope (Leica, Wetzlar, Germany), and the mean colony area was analyzed using i-Solution ^TM software (Vancouver, BC, Canada).

HCC827 cells [1] = test: Annexin V/7-AAD apoptosis, HCC827; parameters: Early apoptosis / Total apopt / Dead / Live: unit not given here; settings: for apoptotic cells (annexin V+): 48 h, background 4.78 %; for Dead / Early apoptosis / Late apoptosis/Dead / Total apopt / Live: HCC827
Method: (§1) HaCaT cells were grown in DMEM, whereas HCC827 and HCC827GR cells were grown in RPMI 1640. All culture media were supplemented with FBS (10 %) and P/S (1 %), and the cells were grown at 37 °C in 5 % CO2.
Apoptosis was measured using a Muse™ Annexin V & Dead Cell Kit (MCH100105, Merck Millipore). The fluorescent signal was analyzed with a Muse™ Cell Analyzer.

HCC827 cells [2] = test: Cell cycle distribution (Muse, PI), HCC827; settings: 48 h
Method: as §1
Cell cycle distribution analysis was performed using a Muse™ Cell Cycle Kit (MCH100106, Merck Millipore, Billerica, MA) based on propidium iodide (PI) staining. The cells were collected, fixed in 70 % ethanol overnight at -20 °C, and then stained with a Muse™ Cell Cycle Reagent at RT for 30 min in the dark. The cell cycle distribution was measured using a Muse™ Cell Analyzer (Merck Millipore).

CDK4 = test: Immunoblot CDK4 in HCC827 and HCC827GR cells; settings: for CDK4 protein ratio: relative to DBG 0 nM = 1.00
Method: as §1
Cells were lysed in RIPA buffer, and protein concentration was determined using a Bio-Rad DC Protein Assay kit (Bio-Rad, Hercules, CA, USA). Protein samples from the cell lysates were resolved by sodium dodecyl sulfate-polyacrylamide gel electrophoresis and then transferred onto polyvinylidene fluoride membranes. The membranes were blocked with 3 % or 5 % skim milk and then incubated at 4 °C overnight with the indicated primary antibodies, followed by the corresponding horseradish peroxidase-conjugated secondary antibodies at RT for 2 h. Protein bands were visualized using western blotting luminol reagent solution and ImageQuant LAS 500 (GE Healthcare, Uppsala, Sweden). The density of the bands was quantified using ImageJ software (NIH, Bethesda, MD, USA).

For `COc1ccc(C[C@H]2C(=O)N[C@@H](C)C(=O)N(C)[C@H]3Cc4ccc(cc4)Oc4cc(ccc4O[C@@H]4O[C@H](CO)[C@@H](O)[C@H](O)[C@H]4O)C[C@@H](C(=O)N[C@H](C)C(=O)N[C@@H](C)C(=O)N2C)N(C)C3=O)cc1` [DBG, deoxybouvardin glucoside], the “colony number, Control %” value (HCC827GR cells; DBG 3 nM) was 40.00%, the “colony size, Control %” value (HCC827GR cells; DBG 3 nM) was 77.33% and the “colony number, Control %” value (HCC827GR cells; DBG 6 nM) was 13.10%. For the same molecule, the “colony size, Control %” value (HCC827GR cells; DBG 6 nM) was 72.67%, the “colony number, Control %” value (HCC827GR cells; DBG 12 nM) was 0.00% and the “colony size, Control %” value (HCC827GR cells; DBG 12 nM) was 0.00%. The “apoptotic cells (annexin V+)” value (HCC827 cells [1]; DBG 3 nM) was 9.60%, the “apoptotic cells (annexin V+)” value (HCC827 cells [1]; DBG 6 nM) was 15.30% and the “apoptotic cells (annexin V+)” value (HCC827 cells [1]; DBG 12 nM) was 44.90%. The Dead (HCC827 cells [1]; DBG 3 nM, mean of 3 samples, untreated 1.21) was 1.72, the Early apoptosis (HCC827 cells [1]; DBG 3 nM, mean of 3 samples, untreated 1.30) was 3.33 and the “Late apoptosis/Dead” value (HCC827 cells [1]; DBG 3 nM, mean of 3 samples, untreated 3.48) was 6.27. It also gave a Total apopt (HCC827 cells [1]; DBG 3 nM, mean of 3 samples, untreated 4.78) of 9.60, a Live (HCC827 cells [1]; DBG 3 nM, mean of 3 samples, untreated 94.01) of 88.68 and a Dead (HCC827 cells [1]; DBG 3 nM, replicate 1) of 1.90. The Early apoptosis (HCC827 cells [1]; DBG 3 nM, replicate 1) was 3.35, the “Late apoptosis/Dead” value (HCC827 cells [1]; DBG 3 nM, replicate 1) was 5.90 and the Live (HCC827 cells [1]; DBG 3 nM, replicate 1) was 88.85. It also gave a Total apopt (HCC827 cells [1]; DBG 3 nM, replicate 1) of 9.25, a Dead (HCC827 cells [1]; DBG 3 nM, replicate 2) of 1.75 and an Early apoptosis (HCC827 cells [1]; DBG 3 nM, replicate 2) of 3.40. For the same molecule, the “Late apoptosis/Dead” value (HCC827 cells [1]; DBG 3 nM, replicate 2) was 5.90, the Live (HCC827 cells [1]; DBG 3 nM, replicate 2) was 88.95 and the Total apopt (HCC827 cells [1]; DBG 3 nM, replicate 2) was 9.30. The Dead (HCC827 cells [1]; DBG 3 nM, replicate 3) was 1.50, the Early apoptosis (HCC827 cells [1]; DBG 3 nM, replicate 3) was 3.25 and the “Late apoptosis/Dead” value (HCC827 cells [1]; DBG 3 nM, replicate 3) was 7.00. It also gave a Live (HCC827 cells [1]; DBG 3 nM, replicate 3) of 88.25, a Total apopt (HCC827 cells [1]; DBG 3 nM, replicate 3) of 10.25 and a Dead (HCC827 cells [1]; DBG 6 nM, mean of 3 samples, untreated 1.21) of 1.75. For the same molecule, the Early apoptosis (HCC827 cells [1]; DBG 6 nM, mean of 3 samples, untreated 1.30) was 6.37, the “Late apoptosis/Dead” value (HCC827 cells [1]; DBG 6 nM, mean of 3 samples, untreated 3.48) was 8.93 and the Total apopt (HCC827 cells [1]; DBG 6 nM, mean of 3 samples, untreated 4.78) was 15.30. It also gave a Live (HCC827 cells [1]; DBG 6 nM, mean of 3 samples, untreated 94.01) of 82.95, a Dead (HCC827 cells [1]; DBG 6 nM, replicate 1) of 1.70 and an Early apoptosis (HCC827 cells [1]; DBG 6 nM, replicate 1) of 6.40. For the same molecule, the “Late apoptosis/Dead” value (HCC827 cells [1]; DBG 6 nM, replicate 1) was 9.25, the Live (HCC827 cells [1]; DBG 6 nM, replicate 1) was 82.65 and the Total apopt (HCC827 cells [1]; DBG 6 nM, replicate 1) was 15.65. The Dead (HCC827 cells [1]; DBG 6 nM, replicate 2) was 1.90, the Early apoptosis (HCC827 cells [1]; DBG 6 nM, replicate 2) was 6.75 and the “Late apoptosis/Dead” value (HCC827 cells [1]; DBG 6 nM, replicate 2) was 8.15. It also gave a Live (HCC827 cells [1]; DBG 6 nM, replicate 2) of 83.20, a Total apopt (HCC827 cells [1]; DBG 6 nM, replicate 2) of 14.90 and a Dead (HCC827 cells [1]; DBG 6 nM, replicate 3) of 1.65. For the same molecule, the Early apoptosis (HCC827 cells [1]; DBG 6 nM, replicate 3) was 5.95, the “Late apoptosis/Dead” value (HCC827 cells [1]; DBG 6 nM, replicate 3) was 9.40 and the Live (HCC827 cells [1]; DBG 6 nM, replicate 3) was 83.00. The Total apopt (HCC827 cells [1]; DBG 6 nM, replicate 3) was 15.35, the Dead (HCC827 cells [1]; DBG 12 nM, mean of 3 samples, untreated 1.21) was 4.72 and the Early apoptosis (HCC827 cells [1]; DBG 12 nM, mean of 3 samples, untreated 1.30) was 19.42. The “Late apoptosis/Dead” value (HCC827 cells [1]; DBG 12 nM, mean of 3 samples, untreated 3.48) was 25.48, the Total apopt (HCC827 cells [1]; DBG 12 nM, mean of 3 samples, untreated 4.78) was 44.90 and the Live (HCC827 cells [1]; DBG 12 nM, mean of 3 samples, untreated 94.01) was 50.38. The Dead (HCC827 cells [1]; DBG 12 nM, replicate 1) was 4.65, the Early apoptosis (HCC827 cells [1]; DBG 12 nM, replicate 1) was 19.00 and the “Late apoptosis/Dead” value (HCC827 cells [1]; DBG 12 nM, replicate 1) was 25.05. For the same molecule, the Live (HCC827 cells [1]; DBG 12 nM, replicate 1) was 51.30, the Total apopt (HCC827 cells [1]; DBG 12 nM, replicate 1) was 44.05 and the Dead (HCC827 cells [1]; DBG 12 nM, replicate 2) was 4.15. The Early apoptosis (HCC827 cells [1]; DBG 12 nM, replicate 2) was 19.25, the “Late apoptosis/Dead” value (HCC827 cells [1]; DBG 12 nM, replicate 2) was 25.30 and the Live (HCC827 cells [1]; DBG 12 nM, replicate 2) was 51.30. The Total apopt (HCC827 cells [1]; DBG 12 nM, replicate 2) was 44.55, the Dead (HCC827 cells [1]; DBG 12 nM, replicate 3) was 5.35 and the Early apoptosis (HCC827 cells [1]; DBG 12 nM, replicate 3) was 20.00. The “Late apoptosis/Dead” value (HCC827 cells [1]; DBG 12 nM, replicate 3) was 26.10, the Live (HCC827 cells [1]; DBG 12 nM, replicate 3) was 48.55 and the Total apopt (HCC827 cells [1]; DBG 12 nM, replicate 3) was 46.10. The G0/G1 distribution (HCC827 cells [2]; DBG 3 nM, mean of 3 samples) was 61.33, the G2/M distribution (HCC827 cells [2]; DBG 3 nM, mean of 3 samples) was 31.20 and the S distribution (HCC827 cells [2]; DBG 3 nM, mean of 3 samples) was 7.47. It also gave a G0/G1 distribution (HCC827 cells [2]; DBG 3 nM, sample 1) of 60.80, a G2/M distribution (HCC827 cells [2]; DBG 3 nM, sample 1) of 31.60 and a S distribution (HCC827 cells [2]; DBG 3 nM, sample 1) of 7.60. It also gave a G0/G1 distribution (HCC827 cells [2]; DBG 3 nM, sample 2) of 61.70, a G2/M distribution (HCC827 cells [2]; DBG 3 nM, sample 2) of 31.40 and a S distribution (HCC827 cells [2]; DBG 3 nM, sample 2) of 6.90. For the same molecule, the G0/G1 distribution (HCC827 cells [2]; DBG 3 nM, sample 3) was 61.50, the G2/M distribution (HCC827 cells [2]; DBG 3 nM, sample 3) was 30.60 and the S distribution (HCC827 cells [2]; DBG 3 nM, sample 3) was 7.90. The G0/G1 distribution (HCC827 cells [2]; DBG 6 nM, mean of 3 samples) was 64.27, the G2/M distribution (HCC827 cells [2]; DBG 6 nM, mean of 3 samples) was 28.30 and the S distribution (HCC827 cells [2]; DBG 6 nM, mean of 3 samples) was 7.43. It also gave a G0/G1 distribution (HCC827 cells [2]; DBG 6 nM, sample 1) of 65.20, a G2/M distribution (HCC827 cells [2]; DBG 6 nM, sample 1) of 27.50 and a S distribution (HCC827 cells [2]; DBG 6 nM, sample 1) of 7.30. It also gave a G0/G1 distribution (HCC827 cells [2]; DBG 6 nM, sample 2) of 63.60, a G2/M distribution (HCC827 cells [2]; DBG 6 nM, sample 2) of 28.30 and a S distribution (HCC827 cells [2]; DBG 6 nM, sample 2) of 8.10. It also gave a G0/G1 distribution (HCC827 cells [2]; DBG 6 nM, sample 3) of 64.00, a G2/M distribution (HCC827 cells [2]; DBG 6 nM, sample 3) of 29.10 and a S distribution (HCC827 cells [2]; DBG 6 nM, sample 3) of 6.90. For the same molecule, the G0/G1 distribution (HCC827 cells [2]; DBG 12 nM, mean of 3 samples) was 74.37, the G2/M distribution (HCC827 cells [2]; DBG 12 nM, mean of 3 samples) was 19.80 and the S distribution (HCC827 cells [2]; DBG 12 nM, mean of 3 samples) was 5.83. For the same molecule, the G0/G1 distribution (HCC827 cells [2]; DBG 12 nM, sample 1) was 73.00, the G2/M distribution (HCC827 cells [2]; DBG 12 nM, sample 1) was 21.00 and the S distribution (HCC827 cells [2]; DBG 12 nM, sample 1) was 6.00. It also gave a G0/G1 distribution (HCC827 cells [2]; DBG 12 nM, sample 2) of 75.10, a G2/M distribution (HCC827 cells [2]; DBG 12 nM, sample 2) of 19.40 and a S distribution (HCC827 cells [2]; DBG 12 nM, sample 2) of 5.50. The G0/G1 distribution (HCC827 cells [2]; DBG 12 nM, sample 3) was 75.00, the G2/M distribution (HCC827 cells [2]; DBG 12 nM, sample 3) was 19.00 and the S distribution (HCC827 cells [2]; DBG 12 nM, sample 3) was 6.00. For the same molecule, the “level of CDKs (CDK4)” value (CDK4; DBG 3, 6, 12 nM, 48 h) was “significantly decreased”, the CDK4 protein/actin (CDK4; HCC827, DBG 3 nM, DBG 0 nM 0.59) was 0.35 and the CDK4 protein ratio (CDK4; HCC827, DBG 3 nM) was 0.58. It also gave a CDK4 protein/actin (CDK4; HCC827, DBG 6 nM, DBG 0 nM 0.59) of 0.30, a CDK4 protein ratio (CDK4; HCC827, DBG 6 nM) of 0.50 and a CDK4 protein/actin (CDK4; HCC827, DBG 12 nM, DBG 0 nM 0.59) of 0.32. The CDK4 protein ratio (CDK4; HCC827, DBG 12 nM) was 0.53, the CDK4 protein/actin (CDK4; HCC827GR, DBG 3 nM, DBG 0 nM 0.72) was 0.61 and the CDK4 protein ratio (CDK4; HCC827GR, DBG 3 nM) was 0.85. For the same molecule, the CDK4 protein/actin (CDK4; HCC827GR, DBG 6 nM, DBG 0 nM 0.72) was 0.55, the CDK4 protein ratio (CDK4; HCC827GR, DBG 6 nM) was 0.77 and the CDK4 protein/actin (CDK4; HCC827GR, DBG 12 nM, DBG 0 nM 0.72) was 0.30. It also gave a CDK4 protein ratio (CDK4; HCC827GR, DBG 12 nM) of 0.42.
